The subject of assay [1] is mice subjected to surgical manipulation of the small intestine. In words: intestinal transit of fluorescein-labeled dextran after intestinal manipulation (IM). It is filed as in vivo, mouse. The text has this:
Surgical Manipulation. Mice were anesthetized with inhaled isoflurane and the abdomen opened by midline laparotomy. The small intestine was eventrated and gently compressed along its entire length using moistened sterile cotton applicators. This procedure is designed to simulate “running” of the bowel commonly performed during abdominal surgery in the clinical setting. The bowel was repositioned in the abdominal cavity and the incision closed by two layers of continuous sutures. The duration of the procedure was approximately 15 minutes and the animals moved freely about their cage within 20 minutes of withdrawal of anesthetic.
CO Inhalation Treatment. Mice housed in cages were placed in plexiglass chambers that were continuously ventilated with air or with air containing CO (250 ppm). […]
Mice were anesthetized and killed by exsanguination at the end of the 24-hour chamber treatment with CO or room air. In vitro circular muscle mechanical activity was measured as previously described in Eskandari et al. (Am. J. Physiol. 273:G727-G734 (1997)). […] Contractile activity was calculated by integrating the area under the trace. […] Intestinal transit was measured in controls and manipulated animals 24 hours postoperatively by evaluating the intestinal distribution of a non-absorbable fluorescein-labeled dextran (MW 70,000). […]

Assay [2] relates to mice with ileus induced by manipulation of the small intestine. Nature of the assay: Example 3 intestinal transit, geometric center after IM. The assay is classed as in vivo, mouse. Particulars: IM+CO mice (250 and 500 ppm), 24 hours. On the procedure: Ileus was induced in mice by gentle manipulation of the small intestine. An incision was made to expose the abdominal cavity of the mouse, and bowel manipulation was performed by gentle poking and prodding of the small intestine (see, e.g., Schwarz et al., Gastroenterology 121(6):1354-1357 (2001)). The incision was subsequently closed, and analyses were performed 24 hours later. Mice were exposed to CO by inhalation (250 and 500 ppm) for 1 hour immediately prior to intestinal manipulation and during the entire 24-hour recovery period. Intestinal contractility was assessed in vitro by measuring circular muscle strip contractions in response to bethanechol (0.3-300 μM) and in vivo by determining intestinal transit from the distribution of orally-fed, fluorescein-labeled dextran and calculating geometric center as described in Example 1 above. HO-1 and IL-10 mRNA expression were determined by SYBR green real time RT-PCR from extracts of muscularis extemae, as described in Example 1 above. Release of nitric oxide (NO), a potent inhibitor of smooth muscle contractility, was estimated by measuring serum total nitrite, also described in Example 1 above.

Molecules are shown by their SMILES. Entries after “also recorded” stand apart in the source; their conditions may differ.

`[C-]#[O+]` [CO, carbon monoxide]: the “intestinal transit (GC, distribution of labeled dextran)” value in assay [1] (IM + CO 250 ppm vs IM, 24 hours postoperatively) is recorded as “significantly improved; also recorded: more distal distribution; also recorded: significant increase”. The intestinal transit entry in assay [1] (unoperated mice, CO 250 ppm alone) is recorded as “slight insignificant shift”. The same molecule returned a geometric center in assay [2] of 6.3±0.8.

(Values after patent US7687079B2, “Methods of treating ileus” (priority 2002, dated 2010).)
